Laboratory results published in patent US8658591B2, “Multi-LEU peptides and analogues thereof as selective PACE4 inhibitors and effective antiproliferative agents” (priority 2008, dated 2014).

Legend:
Assay type in all cases: biochemical
[1] = molecular target: PC5/6 (Homo sapiens, UniProt Q92824); test: Enzyme inhibition assay, fluorogenic substrate, PC5/6
Procedure: (§1) Enzyme inhibition assays for furin (FIG. 5D) were performed in 100 mM Hepes pH 7.5, 1 mM CaCl2, 1 mM β-mercaptoethanol, 0.5 μg/μL BSA. Assays for PC2 (FIG. 5E) were performed in 20 mM Bis-Tris pH 5,7, 1 mM CaCl2, 0.1% Brij-30. Assays for PC1/3, PC4, PACE4, PC5/6 and PC7 (FIGS. 5F, G, A, B and C respectively) were performed in 20 mM Bis-Tis pH 6.5, 1 mM CaCl2. All assays were performed with the substrate pyroGlu-Arg-[…]-Lys-Arg-methyl-coumaryl-7-amide (SEQ ID NO: 33) (PyrRTKR-MCA (SEQ ID NO: 34)) (Bachem, CA) at 100 μM for furin, PC1/3, PC4, PACE4 and PC5/6, 200 μM for PC2 and 250 μM for PC7. Assays were carried out at 37° C. for 30-60 min and real-time fluorescence was measured with an excitation wavelength of 370 nm and an emission wavelength of 460 nm using a Gemini XS™ 96-well spectrofluorometer and SoftMaxPro4™ software (Molecular Devices, CA). Inhibitory peptides were added to the enzymes at decreasing concentrations from 100 μM to 50 nM and incubated 5 minutes prior to the addition of substrate.

[2] = molecular target: T1, PC7 (Homo sapiens, UniProt Q16549); test: Enzyme inhibition assay, fluorogenic substrate, PC7
T1 sequence (Q16549 142-785): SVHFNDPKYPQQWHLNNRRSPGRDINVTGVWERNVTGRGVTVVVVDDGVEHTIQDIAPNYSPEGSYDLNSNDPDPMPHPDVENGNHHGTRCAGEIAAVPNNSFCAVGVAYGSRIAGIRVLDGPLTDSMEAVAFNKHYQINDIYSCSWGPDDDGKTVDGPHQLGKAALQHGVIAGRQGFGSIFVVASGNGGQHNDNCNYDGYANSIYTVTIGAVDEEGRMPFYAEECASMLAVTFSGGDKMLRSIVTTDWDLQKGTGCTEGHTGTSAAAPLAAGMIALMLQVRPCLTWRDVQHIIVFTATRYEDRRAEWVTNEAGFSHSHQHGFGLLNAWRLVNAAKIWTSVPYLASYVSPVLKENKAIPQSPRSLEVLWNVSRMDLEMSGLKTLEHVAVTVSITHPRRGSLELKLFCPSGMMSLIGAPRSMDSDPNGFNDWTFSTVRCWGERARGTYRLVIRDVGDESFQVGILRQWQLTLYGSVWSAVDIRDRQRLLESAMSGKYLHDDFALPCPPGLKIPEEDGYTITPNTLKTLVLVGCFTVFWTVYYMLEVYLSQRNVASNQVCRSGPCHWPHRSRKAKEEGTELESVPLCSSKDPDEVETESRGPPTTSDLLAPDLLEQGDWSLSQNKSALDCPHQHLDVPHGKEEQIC
Procedure: as §1

[3] = molecular target: furin (Homo sapiens, UniProt P09958); test: Enzyme inhibition assay, fluorogenic substrate, furin
Procedure: as §1

[4] = molecular target: T2, PC2 (Homo sapiens, UniProt P16519); test: Enzyme inhibition assay, fluorogenic substrate, PC2
T2 sequence (P16519 110-638): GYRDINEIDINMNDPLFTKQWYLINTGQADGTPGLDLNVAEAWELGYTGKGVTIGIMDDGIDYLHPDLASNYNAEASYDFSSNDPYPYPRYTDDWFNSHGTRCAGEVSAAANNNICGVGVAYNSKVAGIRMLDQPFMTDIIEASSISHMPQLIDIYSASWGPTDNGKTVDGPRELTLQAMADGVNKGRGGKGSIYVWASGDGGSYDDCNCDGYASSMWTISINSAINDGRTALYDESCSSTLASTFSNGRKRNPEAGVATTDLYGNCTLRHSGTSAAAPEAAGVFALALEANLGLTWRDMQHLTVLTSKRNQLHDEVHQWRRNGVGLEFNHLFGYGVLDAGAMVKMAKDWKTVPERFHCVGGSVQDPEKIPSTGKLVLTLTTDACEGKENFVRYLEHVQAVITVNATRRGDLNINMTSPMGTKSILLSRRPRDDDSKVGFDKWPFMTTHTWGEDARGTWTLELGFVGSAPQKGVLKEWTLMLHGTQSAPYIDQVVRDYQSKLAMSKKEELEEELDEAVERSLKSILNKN
Procedure: as §1

[5] = molecular target: T3, PC1/3 (Homo sapiens, UniProt P29120); test: Enzyme inhibition assay, fluorogenic substrate, PC1/3
T3 sequence (P29120 111-753): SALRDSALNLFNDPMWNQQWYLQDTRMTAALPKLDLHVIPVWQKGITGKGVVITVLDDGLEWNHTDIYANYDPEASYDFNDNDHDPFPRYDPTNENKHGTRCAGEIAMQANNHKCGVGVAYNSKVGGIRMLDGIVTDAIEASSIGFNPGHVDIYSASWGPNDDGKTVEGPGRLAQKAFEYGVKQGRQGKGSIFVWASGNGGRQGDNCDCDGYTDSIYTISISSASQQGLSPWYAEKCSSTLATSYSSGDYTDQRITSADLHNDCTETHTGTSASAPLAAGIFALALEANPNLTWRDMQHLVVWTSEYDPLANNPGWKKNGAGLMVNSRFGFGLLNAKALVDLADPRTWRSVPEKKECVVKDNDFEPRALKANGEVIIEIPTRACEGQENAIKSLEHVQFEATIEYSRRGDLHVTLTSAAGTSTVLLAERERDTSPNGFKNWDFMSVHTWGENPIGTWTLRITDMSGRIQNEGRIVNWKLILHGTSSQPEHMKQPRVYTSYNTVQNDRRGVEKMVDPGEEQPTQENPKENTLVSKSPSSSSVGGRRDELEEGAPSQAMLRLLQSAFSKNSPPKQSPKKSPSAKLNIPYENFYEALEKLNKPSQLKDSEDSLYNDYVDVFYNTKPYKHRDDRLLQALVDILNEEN
Procedure: as §1

furin, sequence (P09958 108-794, species assumed): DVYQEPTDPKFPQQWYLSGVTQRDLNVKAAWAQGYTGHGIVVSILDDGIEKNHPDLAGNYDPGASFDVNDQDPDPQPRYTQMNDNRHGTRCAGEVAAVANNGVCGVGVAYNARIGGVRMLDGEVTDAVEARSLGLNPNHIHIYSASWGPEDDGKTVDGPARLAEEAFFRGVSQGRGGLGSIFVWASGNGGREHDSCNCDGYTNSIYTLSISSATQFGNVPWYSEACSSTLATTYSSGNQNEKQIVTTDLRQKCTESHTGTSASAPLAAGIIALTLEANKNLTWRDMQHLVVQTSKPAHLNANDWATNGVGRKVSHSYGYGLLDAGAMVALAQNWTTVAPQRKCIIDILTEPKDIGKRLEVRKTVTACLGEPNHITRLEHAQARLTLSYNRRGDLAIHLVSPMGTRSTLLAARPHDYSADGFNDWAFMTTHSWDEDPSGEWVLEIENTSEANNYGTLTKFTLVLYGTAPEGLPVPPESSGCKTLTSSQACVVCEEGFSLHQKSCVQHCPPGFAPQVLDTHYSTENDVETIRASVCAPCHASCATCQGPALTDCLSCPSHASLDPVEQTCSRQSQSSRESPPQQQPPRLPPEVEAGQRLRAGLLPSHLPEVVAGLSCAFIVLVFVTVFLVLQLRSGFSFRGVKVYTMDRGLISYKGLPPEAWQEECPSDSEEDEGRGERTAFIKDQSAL
PC5/6, sequence (Q92824 115-1860): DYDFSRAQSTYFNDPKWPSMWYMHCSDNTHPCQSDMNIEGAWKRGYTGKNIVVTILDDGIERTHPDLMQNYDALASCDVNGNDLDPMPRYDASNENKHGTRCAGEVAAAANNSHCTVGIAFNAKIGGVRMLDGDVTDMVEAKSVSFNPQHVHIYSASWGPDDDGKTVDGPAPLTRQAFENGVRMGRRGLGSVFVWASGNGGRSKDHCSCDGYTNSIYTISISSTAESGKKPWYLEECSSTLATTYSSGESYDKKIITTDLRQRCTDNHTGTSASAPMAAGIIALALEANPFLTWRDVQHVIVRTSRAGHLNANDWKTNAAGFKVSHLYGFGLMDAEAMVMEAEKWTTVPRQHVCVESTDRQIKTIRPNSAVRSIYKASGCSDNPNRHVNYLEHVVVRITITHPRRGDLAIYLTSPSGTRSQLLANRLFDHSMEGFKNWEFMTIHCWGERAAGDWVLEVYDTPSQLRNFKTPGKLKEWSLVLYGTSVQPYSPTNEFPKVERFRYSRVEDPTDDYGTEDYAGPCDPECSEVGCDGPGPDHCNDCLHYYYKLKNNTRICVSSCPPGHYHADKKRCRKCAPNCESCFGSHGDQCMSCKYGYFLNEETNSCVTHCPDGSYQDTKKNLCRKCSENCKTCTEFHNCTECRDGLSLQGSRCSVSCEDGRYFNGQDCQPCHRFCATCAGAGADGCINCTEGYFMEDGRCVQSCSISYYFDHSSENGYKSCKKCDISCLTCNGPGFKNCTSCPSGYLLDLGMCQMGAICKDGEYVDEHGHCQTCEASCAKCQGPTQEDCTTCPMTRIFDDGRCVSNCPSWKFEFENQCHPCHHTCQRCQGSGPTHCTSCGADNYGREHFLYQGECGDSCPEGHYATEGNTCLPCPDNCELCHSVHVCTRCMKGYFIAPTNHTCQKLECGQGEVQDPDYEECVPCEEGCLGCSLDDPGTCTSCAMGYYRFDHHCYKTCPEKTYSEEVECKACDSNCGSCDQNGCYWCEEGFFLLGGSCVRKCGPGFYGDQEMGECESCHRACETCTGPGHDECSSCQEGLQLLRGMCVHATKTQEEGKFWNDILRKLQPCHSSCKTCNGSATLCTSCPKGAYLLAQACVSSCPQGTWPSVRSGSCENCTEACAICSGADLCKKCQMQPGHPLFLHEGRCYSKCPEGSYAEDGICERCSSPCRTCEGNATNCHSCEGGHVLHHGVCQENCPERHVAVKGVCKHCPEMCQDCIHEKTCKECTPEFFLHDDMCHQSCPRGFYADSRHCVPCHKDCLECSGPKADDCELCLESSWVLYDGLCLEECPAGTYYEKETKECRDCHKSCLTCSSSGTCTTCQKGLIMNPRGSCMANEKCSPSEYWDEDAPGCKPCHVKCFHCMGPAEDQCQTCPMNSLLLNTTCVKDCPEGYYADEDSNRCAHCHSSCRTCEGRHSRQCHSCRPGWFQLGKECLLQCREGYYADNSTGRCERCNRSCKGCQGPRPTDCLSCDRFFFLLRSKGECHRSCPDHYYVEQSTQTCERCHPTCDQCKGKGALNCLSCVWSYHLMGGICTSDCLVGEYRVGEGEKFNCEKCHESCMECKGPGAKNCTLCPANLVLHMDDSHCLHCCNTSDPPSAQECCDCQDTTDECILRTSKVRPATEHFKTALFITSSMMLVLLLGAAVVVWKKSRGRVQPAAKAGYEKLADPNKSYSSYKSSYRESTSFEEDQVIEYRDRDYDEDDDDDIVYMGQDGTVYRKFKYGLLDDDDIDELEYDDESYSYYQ

RVKR [RVKR—NH2, RVKR-NH2]
poor micromolar inhibitor: inhibition potency on PC5/6, in words [1] | inhibition potency on PC7, in words [2] | inhibition potency on furin, in words [3] | inhibition potency on PC2, in words [4] | inhibition potency on PC1/3, in words [5]
